Measurements reported in BindingDB's records for doi:10.1016/j.bmc.2008.09.058 (Yale University, 2009).
pIC50: −log10 of the molar value. Square brackets hold non-standard residues; d marks the D form. Peptide text beside a SMILES is read from it. * marks the point of attachment. 4Abz = Nc1ccc(C(=O)O)cc1; NHBn = c1ccc(CN*)cc1

Target: RAC-alpha serine/threonine-protein kinase (Homo sapiens, UniProt P31749)
Test: AKT IMAP Fluorescence Polarization Assay
Settings: pH 7.2; 23 °C
Text: A bead-based FP assay methodology, termed IMAP, has been developed for the serine/threonine kinase, AKT that allows for direct measurement of product formation. The assay design utilizes a fluoresceinated peptide substrate that, when phosphorylated by the kinase, binds to nanoparticles derivatized with trivalent metal cations through a metal-phospholigand interaction. The result of this bound fluoresceinated phosphorylated product is an increase in polarization signal caused by a decrease in the molecular mobility of the bound product. Reported values are an average of three independent binding curves utilizing an IMAP Akt Assay Kit (Molecular Devices). Reactions were conducted in wells with fluoresceinated peptide, ATP, and Akt1, and inhibitor in reaction buffer. The reactions were equilibrated for 1 h at room temperature then data points were collected and analyzed.

Chain of RAC-alpha serine/threonine-protein kinase (P31749 whole entry): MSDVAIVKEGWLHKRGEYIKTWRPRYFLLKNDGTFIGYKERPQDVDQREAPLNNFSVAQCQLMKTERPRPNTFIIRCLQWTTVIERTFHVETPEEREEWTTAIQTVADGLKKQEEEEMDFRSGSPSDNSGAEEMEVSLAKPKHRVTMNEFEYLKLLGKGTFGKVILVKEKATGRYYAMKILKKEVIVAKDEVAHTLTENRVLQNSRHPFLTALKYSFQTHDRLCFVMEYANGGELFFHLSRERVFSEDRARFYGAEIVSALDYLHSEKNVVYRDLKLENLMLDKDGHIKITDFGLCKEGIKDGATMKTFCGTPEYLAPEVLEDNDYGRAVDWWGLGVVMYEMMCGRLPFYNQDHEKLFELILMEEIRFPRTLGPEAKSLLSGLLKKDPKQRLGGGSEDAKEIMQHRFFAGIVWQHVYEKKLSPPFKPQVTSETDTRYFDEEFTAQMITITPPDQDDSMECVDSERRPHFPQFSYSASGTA

With `CC(=O)NCC(=O)NC(CCCN=C(N)N)C(=O)N1CCCC1C(=O)NC(CCCN=C(N)N)C(=O)Nc1ccc(C(=O)NC(C(=O)NC(Cc2ccccc2)C(=O)NCc2ccccc2)C(C)C)cc1` (configuration not stated) [Peptidomimetic, 2] (Ac-GRPR[4Abz]VF-NHBn; configuration not given here) the pIC50 was 4.55.
With `CC(=O)NC(CCCN=C(N)N)C(=O)Nc1ccc(C(=O)NC(C(=O)NC(Cc2ccccc2)C(=O)NCc2ccccc2)C(C)C)cc1` (configuration not stated) [Peptidomimetic, 9] (Ac-R[4Abz]VF-NHBn; configuration not given here) the pIC50 was 3.92.
